Holding throughout (assay type): functional
The subject of experiment [1] is Acinetobacter baumannii. As to the kind of experiment: Antimicrobial activity against Acinetobacter baumannii ATCC 19606 after 24 hrs. Conditions: ATCC 19606 = CIP 70.34 = JCM 6841, 24 h.
Experiment [2] has as its system Acinetobacter baumannii. The experiment can be described thus: Antimicrobial activity against Acinetobacter baumannii WRAIR after 24 hrs.
For another experiment, the system named is Staphylococcus aureus. As to the kind of experiment: Antimicrobial activity against methicillin-resistant Staphylococcus aureus ATCC 33591 after 24 hrs. Conditions: ATCC 33591, 24 h.
A further experiment relates to Yersinia pestis. The experiment can be described thus: Antimicrobial activity against Yersinia pestis CO92 after 24 hrs. Conditions: CO92, 24 h.
Another experiment relates to Brucella melitensis. The experiment can be described thus: Antimicrobial activity against Brucella melitensis 16 M after 24 hrs.
The next experiment has as its system Brucella abortus. The experiment can be described thus: Antimicrobial activity against Brucella abortus 2308 after 24 hrs. Conditions: Brucella abortus, 2308, 24 h.
For another experiment, the system named is Brucella suis. As to the kind of experiment: Antimicrobial activity against Brucella suis ATCC 23445 after 24 hrs. Conditions: ATCC 23445, 24 h.
The subject of a further experiment is Bacillus anthracis. As to the kind of experiment: Antimicrobial activity against Bacillus anthracis Ames after 24 hrs.
Another experiment relates to Francisella tularensis. As to the kind of experiment: Antimicrobial activity against Francisella tularensis SCHU-S4 after 24 hrs. Conditions: SCHU-S4, 24 h.
The subject of a further experiment is Burkholderia mallei. The experiment can be described thus: Antimicrobial activity against Burkholderia mallei ATCC 23444 after 24 hrs. Conditions: ATCC 23444, 24 h.
Experiment [3] has as its system Burkholderia pseudomallei. As to the kind of experiment: Antimicrobial activity against Burkholderia pseudomallei BURK003(1026b) after 24 hrs.

In brackets after ≈: the same amount, converted by molar mass. Starred links: 1 amine or outer side, 2 acyl side, 3 side chain; linkers in the order of their positions; H or OH if unused. Non-standard residues stand in square brackets, D forms with d. Residues, ends and D or L forms follow the SMILES beside them. ξ: configuration not given here. Pro(3ξ,4ξ-(CH2)4) = O=C(O)[C@H]1NCC2CCCCC21; X1 = O=C([C@@H]1CN([*:1])C2CCCCC21)[*:2]; X2 = O=C([C@H]1CN([*:1])C2CCCCC21)[*:2]; Phe(4-F) = N[C@@H](Cc1ccc(F)cc1)C(=O)O; Tic = O=C(O)[C@@H]1Cc2ccccc2CN1; Orn = NCCC[C@H](N)C(=O)O; Dab = NCC[C@H](N)C(=O)O

Regarding `CC(=O)NCC(=O)N[C@@H](Cc1ccccc1)C(=O)N1Cc2ccccc2C[C@H]1C(=O)N1C[C@@H](C(=O)NCC(=O)N[C@@H](CCN)C(=O)N2Cc3ccccc3C[C@H]2C(=O)N2C[C@@H](C(=O)NCC(=O)N[C@@H](Cc3ccccc3)C(=O)N3Cc4ccccc4C[C@H]3C(=O)N3C[C@@H](C(=O)NCC(=O)N[C@@H](CCN)C(=O)N4Cc5ccccc5C[C@H]4C(=O)N[C@@H](CCN)C(=O)N[C@@H](CCN)C(=O)N[C@@H](CCN)C(=O)N[C@@H](CCN)C(N)=O)C4CCCCC43)C3CCCCC32)C2CCCCC21` (some centres undefined) (Ac-GF[Tic][X1]G[Dab][Tic][X1]GF[Tic][X1]G[Dab][Tic][Dab][Dab][Dab][Dab]-NH2), the MIC against Acinetobacter baumannii [1] turned out to be 3.4 µM (≈ 7.73 µg/mL); in the experiment with Acinetobacter baumannii [2], 3.4 µM (≈ 7.73 µg/mL); in the experiment on Staphylococcus aureus it was 220 µM (≈ 500 µg/mL); with Yersinia pestis it was 220 µM (≈ 500 µg/mL); with Brucella melitensis, 220 µM (≈ 500 µg/mL); in the experiment with Brucella abortus it was 220 µM (≈ 500 µg/mL). In addition, the MIC turned out to be 220 µM (≈ 500 µg/mL) against Brucella suis; 6.8 µM (≈ 15.5 µg/mL) against Bacillus anthracis; 220 µM (≈ 500 µg/mL) in the experiment on Francisella tularensis; 220 µM (≈ 500 µg/mL) in the experiment with Burkholderia mallei; 220 µM (≈ 500 µg/mL) in [3].
Take `CC(=O)NCC(=O)N[C@@H](Cc1ccccc1)C(=O)N1Cc2ccccc2C[C@H]1C(=O)N1C[C@@H](C(=O)NCC(=O)N[C@@H](CCCN)C(=O)N2Cc3ccccc3C[C@H]2C(=O)N2C[C@@H](C(=O)NCC(=O)N[C@@H](Cc3ccccc3)C(=O)N3Cc4ccccc4C[C@H]3C(=O)N3C[C@@H](C(=O)NCC(=O)N[C@@H](CCCN)C(=O)N4Cc5ccccc5C[C@H]4C(=O)N[C@@H](CCCN)C(=O)N[C@@H](CCCN)C(=O)N[C@@H](CCCN)C(=O)N[C@@H](CCCN)C(N)=O)C4CCCCC43)C3CCCCC32)C2CCCCC21` (some centres undefined) (Ac-GF[Tic][X1]G[Orn][Tic][X1]GF[Tic][X1]G[Orn][Tic][Orn][Orn][Orn][Orn]-NH2): the MIC against Acinetobacter baumannii [1] was found to be 6.6 µM (≈ 15.6 µg/mL); with Acinetobacter baumannii [2], 6.6 µM (≈ 15.6 µg/mL); against Staphylococcus aureus, 53 µM (≈ 125 µg/mL); in the experiment with Yersinia pestis it was 26.5 µM (≈ 62.5 µg/mL); with Brucella melitensis it was 106 µM (≈ 250 µg/mL); in the experiment with Brucella abortus, 106 µM (≈ 250 µg/mL). The MIC is 106 µM (≈ 250 µg/mL) against Brucella suis; 0.82 µM (≈ 1.93 µg/mL) in the experiment with Bacillus anthracis; 106 µM (≈ 250 µg/mL) in the experiment with Francisella tularensis; 212 µM (≈ 500 µg/mL) in the experiment with Burkholderia mallei; 212 µM (≈ 500 µg/mL) in experiment [3].
Consider `CC(=O)NCC(=O)N[C@@H](Cc1ccccc1)C(=O)N1C[C@@H](C(=O)N2C[C@H](C(=O)NCC(=O)N[C@@H](CCCCN)C(=O)N3C[C@@H](C(=O)N4C[C@@H](C(=O)NCC(=O)N[C@@H](Cc5ccccc5)C(=O)N5C[C@@H](C(=O)N6C[C@@H](C(=O)NCC(=O)N[C@@H](CCCCN)C(=O)N7Cc8ccccc8C[C@H]7C(=O)N[C@@H](CCCCN)C(=O)N[C@@H](CCCCN)C(=O)N[C@@H](CCCCN)C(=O)N[C@@H](CCCCN)C(N)=O)C7CCCCC76)C6CCCCC65)C5CCCCC54)C4CCCCC43)C3CCCCC32)C2CCCCC21` (some centres undefined) (Ac-GF[X1][X2]GK[X1][X1]GF[X1][X1]GK[Tic]KKKK-NH2), for which the MIC stood at 3.2 µM (≈ 7.73 µg/mL) against Acinetobacter baumannii [1]; 3.2 µM (≈ 7.73 µg/mL) with Acinetobacter baumannii [2]; 207 µM (≈ 500 µg/mL) with Staphylococcus aureus; 207 µM (≈ 500 µg/mL) against Yersinia pestis; 207 µM (≈ 500 µg/mL) in the experiment on Brucella melitensis; 207 µM (≈ 500 µg/mL) against Brucella abortus. For the same molecule, the MIC with Brucella suis worked out at 207 µM (≈ 500 µg/mL); in the experiment with Bacillus anthracis, 26 µM (≈ 62.8 µg/mL); in the experiment with Francisella tularensis it was 104 µM (≈ 251 µg/mL); in the experiment on Burkholderia mallei, 207 µM (≈ 500 µg/mL); in [3] it was 207 µM (≈ 500 µg/mL).
Regarding `CC(=O)NCC(=O)N[C@@H](Cc1ccc(F)cc1)C(=O)N1Cc2ccccc2C[C@H]1C(=O)N1CC2CCCCC2[C@H]1C(=O)NCC(=O)N[C@@H](CCCCN)C(=O)N1Cc2ccccc2C[C@H]1C(=O)N1CC2CCCCC2[C@H]1C(=O)NCC(=O)N[C@@H](Cc1ccc(F)cc1)C(=O)N1Cc2ccccc2C[C@H]1C(=O)N1CC2CCCCC2[C@H]1C(=O)NCC(=O)N[C@@H](CCCCN)C(=O)N1Cc2ccccc2C[C@H]1C(=O)N[C@@H](CCCCN)C(=O)N[C@@H](CCCCN)C(=O)N[C@@H](CCCCN)C(=O)N[C@@H](CCCCN)C(N)=O` (some centres undefined) (Ac-G[Phe(4-F)][Tic][Pro(3ξ,4ξ-(CH2)4)]GK[Tic][Pro(3ξ,4ξ-(CH2)4)]G[Phe(4-F)][Tic][Pro(3ξ,4ξ-(CH2)4)]GK[Tic]KKKK-NH2), the MIC against Acinetobacter baumannii [1] was 3.1 µM (≈ 7.68 µg/mL); against Acinetobacter baumannii [2], 6.2 µM (≈ 15.4 µg/mL); in the experiment on Staphylococcus aureus, 101 µM (≈ 250 µg/mL); against Yersinia pestis it was 202 µM (≈ 500 µg/mL); against Brucella melitensis, 202 µM (≈ 500 µg/mL); against Brucella abortus, 202 µM (≈ 500 µg/mL). The MIC against Brucella suis amounted to 202 µM (≈ 500 µg/mL); in the experiment on Bacillus anthracis, 12.6 µM (≈ 31.2 µg/mL); against Francisella tularensis, 202 µM (≈ 500 µg/mL); against Burkholderia mallei it was 202 µM (≈ 500 µg/mL); in experiment [3] it was 202 µM (≈ 500 µg/mL).

What is called MIC is the lowest concentration found to suppress growth. Lower therefore signals inhibition by little substance.
